Assays:
Format in all cases: organism-based
Conditions in all cases: in vivo, 168 h
Mus musculus [1] = assay: Acute toxicity in Swiss albino mouse assessed as effect on cholesterol levels at 5 mg/kg, po after 7 days (reference value: 89.73 +/- 10.76 mg/dL)
Mus musculus [2] = assay: Acute toxicity in Swiss albino mouse assessed as effect on serum protein levels at 5 mg/kg, po after 7 days (reference value: 0.10 +/- 0.004 mg/mL)
Mus musculus [3] = assay: Acute toxicity in Swiss albino mouse assessed as effect on GSH levels per mg of tissue protein at 50 mg/kg, po after 7 days (reference value: 17.64 +/- 1.03 micromol)
Mus musculus [4] = assay: Acute toxicity in Swiss albino mouse assessed as effect on haemoglobin levels at 1000 mg/kg, po after 7 days (reference value: 12.29 +/- 0.53 g/dL)

`COc1ccc2c(c1)nc(-c1ccccc1OC)n2Cc1ccccc1OC` was tested, and the Activity (Mus musculus [1]) was 91.48 mg/dL, the Activity (Mus musculus [2]) was 0.09 mg/mL and the Activity (Mus musculus [3]) was 17.1 µmol. For the same compound, the Activity (Mus musculus [4]) was 9.68 g/dL.

Reference: ChEMBL document CHEMBL4229515, “A novel synthesis of 2-arylbenzimidazoles in molecular sieves-MeOH system and their antitubercular activity” (Bioorg Med Chem, 2018)
